Bridge positions count the residues as written; N and C are the ends. Square brackets hold non-standard residues; d marks the D form. Peptide text beside a SMILES is read from it. * marks the point of attachment. Ileψ(thiazoline)Cys = CC[C@H](C)[C@H](N)C1=N[C@H](C(=O)*)CS1; dOrn = NCCC[C@@H](N)C(=O)O

Data on 13 molecules can be found in patent EP0211490B1, “Antibiotics of the vancomycin-class” (SMITHKLINE BEECHAM CORPORATION, priority 1985, dated 1987).

The subject of one experiment is Staph. aureus HH 127. Description: in vivo activity against intraperitoneal infection in mice (ED50). To be noted: Staphylococcus aureus, HH127, read-out: ED₅₀. The protocol:
The ED₅₀'s were as follows: AAD 216 aglycone, 7.6 mg/kg; AAD 216 pseudo- aglycone, 7.6 mg/kg; AAD 216A pseudoaglycone, 5.0 mg./kg; vancomycin, 1.56 mg/kg. Similarly, the ED₅₀'s of AAD 216A pseudoaglycone, AAD 216B pseudoaglycone, AAD 216C pseudoaglycone and vancomycin, determined by utilizing a similar protocol, were 12.5 mg/kg, 7.6 mg/kg, 10.8 mg/kg and 1.92 mg/kg, respectively.
`CNC1C(=O)NC2C(=O)NC(C(=O)NC3C(=O)NC4C(=O)NC(C(=O)NC(C(=O)O)c5cc(O)cc(O)c5-c5cc4ccc5O)C(O)c4cc(Cl)c(c(Cl)c4)Oc4cc3cc(c4O)Oc3ccc(cc3Cl)C2O)c2cc(cc(O)c2Cl)Oc2cc1ccc2O` (stereo not shown) [AAD 216 aglycone]: the ED50 came to 7.6 mg/kg.

The next experiment concerns K. aridum. The experiment is described as follows: susceptibility of K. aridum to antibiotic disks (diffusion method). As to conditions: BBL susceptibility disks, content per antibiotic; one week at 28°C. It is filed as cell-based, Kibdelosporangium aridum. The protocol:
Susceptibility of K. aridum to antibiotics was examined by placing BBL susceptibility disks on nutrient agar plates seeded with K. aridum as an overlay. Diameters of the zones of inhibition were measured after incubation for one week at 28°C.
Susceptibility to Antibiotics. By the diffusion method, K. aridum was resistant to disks impregnated with gentamicin (10 µg), tobramycin (10 µg), streptomycin (10 µg), vancomycin (30 µg), penicillin (10 units), bacitracin (2 units), lincomycin (2 µg), clindamycin (2 µg), and cephalothin (30 µg). Chlortetracycline (5 µg) produced 18 mm zones of inhibition; tetracycline (5 µg) 11-12 mm zones; rifampin (5 µg) 11-15 mm zones; novobiocin (5 µg) 27-28 mm zones. All zones of inhibition contained at least a few resistant colonies.
On to gentamicin, for which the “susceptibility by the diffusion method (in words)” value was “resistant”.
The same measure, in the same setting: as for `CN[C@H](CC(C)C)C(=O)N[C@H]1C(=O)N[C@@H](CC(N)=O)C(=O)N[C@H]2C(=O)N[C@H]3C(=O)N[C@H](C(=O)N[C@H](C(=O)O)c4cc(O)cc(O)c4-c4cc3ccc4O)[C@H](O)c3ccc(c(Cl)c3)Oc3cc2cc(c3O[C@@H]2O[C@H](CO)[C@@H](O)[C@H](O)[C@H]2O[C@H]2C[C@](C)(N)[C@H](O)[C@H](C)O2)Oc2ccc(cc2Cl)[C@H]1O` [vancomycin], the entry is “resistant”; as for penicillin, “resistant”.
On the same count and under the same terms, with `CC(=O)OCC1=C(C(=O)O)N2C(=O)[C@@H](NC(=O)Cc3cccs3)[C@H]2SC1` [cephalothin] the entry was “resistant”.
For the molecule `NC[C@H]1O[C@H](O[C@H]2[C@H](O)[C@@H](O[C@H]3O[C@H](CO)[C@@H](O)[C@H](N)[C@H]3O)[C@H](N)C[C@@H]2N)[C@H](N)C[C@@H]1O` [tobramycin], the “susceptibility by the diffusion method (in words)” value was “resistant”.
The same measure, in the same setting: as for `[H]/N=C(/N)N[C@H]1[C@H](O)[C@@H](O)[C@H](O[C@@H]2O[C@@H](C)[C@](O)(C=O)[C@H]2O[C@@H]2O[C@@H](CO)[C@H](O)[C@@H](O)[C@@H]2NC)[C@@H](N/C(N)=N\[H])[C@@H]1O` [streptomycin], the entry is “resistant”; as for `CC[C@H](C)[C@H](N)C1=N[C@H](C(=O)N[C@@H](CC(C)C)C(=O)N[C@H](CCC(=O)O)C(=O)N[C@H](C(=O)N[C@H]2CCCCNC(=O)[C@H](CC(N)=O)NC(=O)[C@@H](CC(=O)O)NC(=O)[C@H](Cc3cnc[nH]3)NC(=O)[C@@H](Cc3ccccc3)NC(=O)[C@H]([C@@H](C)CC)NC(=O)[C@@H](CCCN)NC2=O)[C@@H](C)CC)CS1` [bacitracin] ({Ileψ(thiazoline)Cys}-L[dE]IK[dOrn]I[dF]H[dD]N; lactam 4-C), “resistant”; as for `CCC[C@@H]1C[C@@H](C(=O)N[C@@H]([C@H]2O[C@H](SC)[C@H](O)[C@@H](O)[C@H]2O)[C@@H](C)O)N(C)C1` [lincomycin], “resistant”.

Staying with this experiment, now noted: disk 5 µg; nutrient agar seeded with K. aridum, one week at 28°C; zones contained a few resistant colonies.
In turn, `CN(C)[C@@H]1C(O)=C(C(N)=O)C(=O)[C@@]2(O)C(O)=C3C(=O)c4c(O)ccc(Cl)c4[C@@](C)(O)[C@H]3C[C@@H]12` [Chlortetracycline] gave a zones of inhibition of 18 mm.
Turning to `CN(C)[C@@H]1C(O)=C(C(N)=O)C(=O)[C@@]2(O)C(O)=C3C(=O)c4c(O)cccc4[C@@](C)(O)[C@H]3C[C@@H]12` [tetracycline], the zones of inhibition is reported as 11-12 mm.
The same measure, in the same setting: as for `CO[C@H]1/C=C/O[C@@]2(C)Oc3c(C)c(O)c4c(O)c(c(/C=N/N5CCN(C)CC5)c(O)c4c3C2=O)NC(=O)/C(C)=C\C=C\[C@H](C)[C@H](O)[C@@H](C)[C@@H](O)[C@@H](C)[C@H](OC(C)=O)[C@@H]1C` [rifampin], the figure is 11-15 mm.
On the same count and under the same terms, as for `CO[C@@H]1[C@@H](OC(N)=O)[C@@H](O)[C@H](Oc2ccc3c(O)c(NC(=O)c4ccc(O)c(CC=C(C)C)c4)c(=O)oc3c2C)OC1(C)C` [novobiocin], the figure is 27-28 mm.
